The nature of series [1]: log P by HPLC on reversed-phase column (C18). In kind it is physicochemical. As to conditions: LC-UV, neutral range, ammonium acetate/acetonitrile, read-out: log P (neutral). As for the experimental part: log P Values The log P values were determined according to EEC Directive 79/831 Annex V.A8 by HPLC (high-performance liquid chromatography) on a reversed-phase column (C18) using the following methods: ^[a] […] Calibration was carried out using straight-chain alkan-2-ones (having 3 to 16 carbon atoms) with known log P values. The values between successive alkanones are determined by linear regression.

Series [2] has as its system Nezara viridula. The series is described as follows: Nezara viridula spray test (plants sprayed, then infected). The settings on record: 500 g/ha, barley plants, after 4 days. In kind it is in vivo. The source says: (§1) Nezara viridula—Spray Test Solvent: 78.0 parts by weight of acetone • • 1.5 parts by weight of dimethylformamide Emulsifier: alkylaryl polyglycol ether An appropriate active ingredient formulation is produced by dissolving 1 part by weight of active ingredient with the stated parts by weight of solvent and making the solution up to the desired concentration with water containing an emulsifier concentration of 1000 ppm. Further test concentrations are produced by diluting the formulation with emulsifier-containing water. Barley plants (Hordeum vulgare) are sprayed with an active ingredient formulation of the desired concentration and are infected with larvae of the Southern green shield bug (Nezara viridula). After 4 days, efficacy in % is determined. 100% means that all of the shield bugs have been killed; 0% means that none of the shield bugs have been killed.

The test system of series [3] is Spodoptera frugiperda. The series is described as follows: Spodoptera frugiperda spray test (cotton leaves). The series is classed as in vivo. The settings on record: 4 ppm, after 7 days. The text has this:
Spodoptera Frustiperda—Spray Test Solvent: 14 parts by weight of dimethylformamide Emulsifier: alkylaryl polyglycol ether An appropriate active ingredient formulation is produced by dissolving 1 part by weight of active ingredient with the stated parts by weight of solvent and making the solution up to the desired concentration with water containing an emulsifier concentration of 1000 ppm. Further test concentrations are produced by diluting the formulation with emulsifier-containing water. If the addition of ammonium salts or/and penetrants is required, these are each added in a concentration of 1000 ppm to the formulation solution. Cotton leaves (Gossypium hirsutum) are sprayed with an active ingredient formulation of the desired concentration and populated with caterpillars of the armyworm (Spodoptera frugiperda). After 7 days, the kill in % is determined. 100% means that all the caterpillars have been killed; 0% means that none of the caterpillars have been killed.

For a further series, the system named is Meloidogyne incognita. Kind of series: Meloidogyne incognita test. In kind it is in vivo. As to conditions: Meloidogyne incognita, 336 h, lettuce, gall formation after 14 days, read-out: nematicidal efficacy. The text has this:
Meloidogyne incognita Test Solvent: 125.0 parts by weight of acetone An appropriate active ingredient formulation is produced by mixing 1 part by weight of active ingredient with the stated amount of solvent and diluting the concentrate to the desired concentration with water. Vessels are filled with sand, active ingredient solution, an egg/larvae suspension of the southern root-knot nematode (Meloidogyne incognita) and lettuce seeds. The lettuce seeds germinate and the plants develop. The galls develop on the roots. After 14 days, the nematicidal efficacy in % is determined by the formation of galls. 100% means that no galls were found; 0% means that the number of galls on the treated plants corresponds to the untreated control.

Series [4] has as its system Diabrotica balteata. The series is described as follows: Diabrotica balteata spray test. In kind it is in vivo. As to conditions: Diabrotica balteata, 168 h; 100 g/ha (=32 μg/cavity), wheat grains, after 7 days; read-out: efficacy. The text has this:
Diabrotica balteata—Spray Test Solvent: 78 parts by weight of acetone • • 1.5 parts by weight of dimethylformamide Emulsifier: alkylaryl polyglycol ether An appropriate active ingredient formulation is produced by dissolving 1 part by weight of active ingredient with the stated parts by weight of solvent and making the solution up to the desired concentration with water containing an emulsifier concentration of 1000 ppm. Further test concentrations are produced by diluting the formulation with emulsifier-containing water. Pre-swollen wheat grains (Triticum aestivum) are incubated in a multiwell plate filled with agar and a little water for one day (5 seed grains per cavity). The germinated wheat grains are sprayed with an active ingredient formulation of the desired concentration. Subsequently, each cavity is infected with 10-20 beetle larvae of Diabrotica balteata. After 7 days, efficacy in % is determined. 100% means that all wheat plants have grown as in the untreated, uninfected control; 0% means that no wheat plant has grown.

Another series has as its system Tetranychus urticae. Kind of series: Tetranychus urticae spray test, OP-resistant. The series is classed as in vivo. The settings on record: 500 g/ha, bean leaf discs, after 6 days. The source says:
Tetranychus urticae—Spray Test, OP-Resistant
(§2) Solvent: 78.0 parts by weight of acetone • • 1.5 parts by weight of dimethylformamide
(§3) Emulsifier: alkylaryl polyglycol ether
(§4) An appropriate active ingredient formulation is produced by dissolving 1 part by weight of active ingredient with the stated parts by weight of solvent and making the solution up to the desired concentration with water containing an emulsifier concentration of 1000 ppm. Further test concentrations are produced by diluting the formulation with emulsifier-containing water.
Discs of bean leaves (Phaseolus vulgaris) infested with all stages of the greenhouse red spider mite (Tetranychus urticae) are sprayed with an active ingredient formulation of the desired concentration.
After 6 days, efficacy in % is determined. 100% means that all the spider mites have been killed; 0% means that no spider mites have been killed.

Series [5] deals with Myzus persicae. The series is described as follows: Myzus persicae spray test. In kind it is in vivo. As to conditions: 20 ppm, bell pepper plants, after 6 days. The text has this: Myzus persicae—Spray Test Solvent: 14 parts by weight of dimethylformamide Emulsifier: alkylaryl polyglycol ether An appropriate active ingredient formulation is produced by dissolving 1 part by weight of active ingredient with the stated parts by weight of solvent and making the solution up to the desired concentration with water containing an emulsifier concentration of 1000 ppm. Further test concentrations are produced by diluting the formulation with emulsifier-containing water. If the addition of ammonium salts or/and penetrants is required, these are each added in a concentration of 1000 ppm to the formulation solution. Bell pepper plants (Capsicum annuum) severely infested with the green peach aphid (Myzus persicae) are treated by spraying with the active ingredient formulation in the desired concentration. After 6 days, the kill rate in % is determined. 100% means that all of the aphids have been killed; 0% means that none of the aphids have been killed.

Series [6] concerns Spodoptera frugiperda. The series is described as follows: Spodoptera frugiperda spray test (maize leaf discs). In kind it is in vivo. As to conditions: Spodoptera frugiperda, foliar, 168 h, after 7 days, read-out: efficacy. The source says: Spodoptera Frusiperda—Spray Test Solvent: 78.0 parts by weight of acetone • • 1.5 parts by weight of dimethylformamide Emulsifier: alkylaryl polyglycol ether An appropriate active ingredient formulation is produced by dissolving 1 part by weight of active ingredient with the stated parts by weight of solvent and making the solution up to the desired concentration with water containing an emulsifier concentration of 1000 ppm. Further test concentrations are produced by diluting the formulation with emulsifier-containing water. Leaf discs of maize (Zea mays) are sprayed with an active ingredient formulation of the desired concentration and, after drying, populated with caterpillars of the fall armyworm (Spodoptera frugiperda). After 7 days, efficacy in % is determined. 100% means that all the caterpillars have been killed; 0% means that no caterpillar has been killed.

Series [7] deals with Nezara viridula. The series is described as follows: Nezara viridula spray test (infected barley plants sprayed). The settings on record: 100 g ai/ha, after 4 days. In kind it is in vivo.
From the text: as §1, with “52.5” for “78.0”, “7” for “• 1.5”, “water. If the addition of ammonium salts or/and penetrants is required, these are each added in a concentration of 1000 ppm to the formulation solution.” for “water.”, “vulgare) infected with larvae of the Southern green shield bug (Nezara viridula)” for “vulgare)”, “concentration.” for “concentration and are infected with larvae of the Southern green shield bug (Nezara viridula).”

The next series deals with Phaedon cochleariae. Kind of series: Phaedon cochleariae spray test. The series is classed as in vivo. As to conditions: 100 g/ha, Chinese cabbage leaf discs, after 7 days.
From the text: Phaedon cochleariae—Spray Test
as §2, §3, §4
Discs of Chinese cabbage leaves (Brassica pekinensis) are sprayed with an active ingredient formulation of the desired concentration and, after drying, populated with larvae of the mustard beetle (Phaedon cochleariae).
After 7 days, efficacy in % is determined. 100% means that all the beetle larvae have been killed; 0% means that no beetle larvae have been killed.

The subject of a further series is Musca domestica. Kind of series: Musca domestica test. In kind it is in vivo. The settings on record: 100 ppm, adult houseflies, after 2 days. As for the experimental part: Musca domestica Test Solvent: dimethyl sulfoxide An appropriate active ingredient formulation is produced by mixing 10 mg of active ingredient with 0.5 ml of dimethyl sulfoxide and diluting the concentrate with water to the desired concentration. Vessels containing a sponge treated with sugar solution and the desired concentration of active compound formulation are populated with 10 adult houseflies (Musca domestica). After 2 days, the kill rate in % is determined relative to the untreated control. 100% means that all of the flies have been killed; 0% means that none of the flies have been killed.

For series [8], the system named is Myzus persicae. The series is described as follows: Myzus persicae oral test. In kind it is in vivo. As to conditions: 4 ppm, after 5 days. As for the experimental part:
Myzus persicae—Oral Test Solvent: 100 parts by weight of acetone An appropriate active ingredient formulation is produced by dissolving 1 part by weight of active ingredient with the specified parts by weight of solvent and making the solution up to the desired concentration with water. 50 μl of the active ingredient formulation is transferred into microtitre plates and made up to a final volume of 200 μl with 150 μl of IPL41 insect medium (33%+15% sugar). Subsequently, the plates are sealed with parafilm, which a mixed population of green peach aphids (Myzus persicae) within a second microtitre plate is able to puncture and imbibe the solution. After 5 days, efficacy in % is determined. 100% means that all the aphids have been killed; 0% means that no aphids have been killed.

A further series concerns Lucilia cuprina. Kind of series: Lucilia cuprina test. In kind it is in vivo. The settings on record: 100 ppm, L1 larvae, after 2 days. As for the experimental part:
Lucilia cuprina Test Solvent: dimethyl sulfoxide An appropriate active ingredient formulation is produced by mixing 10 mg of active ingredient with 0.5 ml of dimethyl sulfoxide and diluting the concentrate with water to the desired concentration. About 20 L1 larvae of the Australian sheep blowfly (Lucilia cuprina) are transferred into a test vessel containing minced horsemeat and the active ingredient formulation of the desired concentration. After 2 days, the kill rate in % is determined relative to the untreated control. 100% means that all the larvae have been killed; 0% means that no larvae have been killed.

The subject of series [9] is Diabrotica balteata. Kind of series: Diabrotica balteata drench test. In kind it is in vivo. As to conditions: 20 ppm, soil drench, maize, after 8 days. The text has this: Diabrotica balteata—Drench Test Solvent: 7 parts by weight of dimethylformamide Emulsifier: 2 parts by weight of alkylaryl polyglycol ether An appropriate active ingredient formulation is produced by mixing 1 part by weight of active ingredient with the specified amounts of solvent and emulsifier, and diluting the concentrate to the desired concentration with water, it being necessary to take account of the volume of soil which is drenched. It should be ensured that a concentration of 40 ppm of emulsifier in the soil is not exceeded. Further test concentrations are produced by diluting with water. 5 […] (Zea mays) in each case are sown into pots filled with earth, and the next day the pots are watered with the active ingredient preparation of the desired concentration. After one day, about 25 L2 larvae of the banded cucumber beetle (Diabrotica balteata) are added. After 8 days, efficacy in % is determined. 100% means that all 5 plants have germinated and grown; 0% means that none of the plants has emerged.

Another series concerns Ctenocephalides felis. The series is described as follows: Ctenocephalides felis oral test. The settings on record: 100 ppm, oral via cattle blood, after 2 days. In kind it is in vivo. As for the experimental part:
Ctenocephalides felis—Oral Test Solvent: dimethyl sulfoxide An appropriate active ingredient formulation is produced by mixing 10 mg of active ingredient with 0.5 ml of dimethyl sulfoxide. Dilution with citrated cattle blood gives the desired concentration. About 20 unfed adult cat fleas (Ctenocephalides felis) are placed into a chamber which is closed at the top and bottom with gauze. Onto the chamber is placed a metal cylinder with its bottom end closed with parafilm. The cylinder contains the blood/active ingredient formulation, which can be imbibed by the fleas through the parafilm membrane. The cylinder is heated to 37° C., while the flea chambers are kept at room temperature. After 2 days, the kill rate in % is determined relative to the untreated control. 100% means that all of the fleas have been killed; 0% means that none of the fleas have been killed.

Regarding `CCS(=O)(=O)c1ccc(-n2ncn(-c3ccc(F)cc3)c2=O)nc1-c1nc2cc(C(F)(F)C(F)(F)F)cnc2n1C` [Example I-02, 2-[5-Ethylsulfonyl-6-[3-methyl-6-(1,1,2,2,2-pentafluoroethyl)imidazo[4,5-b]pyridin-2-yl]-2-pyridyl]-4-(4-fluorophenyl)-1,2,4-triazol-3-one], the chromatographic logP in [1] was found to be 3.53. Also, the efficacy in the series on Nezara viridula [2] came to 100%. Besides, the “efficacy (kill)” value with Spodoptera frugiperda [3] stood at 100%. In addition, the pest or weed control at 20 ppm in the series with Meloidogyne incognita was 100%. Besides, the pest or weed control at 100 g/ha in the series on Diabrotica balteata [4] was 100%.
In the series on Tetranychus urticae, `CCS(=O)(=O)c1ccc(-n2ncn(-c3ccc(C(=O)OC)cc3)c2=O)nc1-c1nc2cc(C(F)(F)C(F)(F)F)cnc2n1C` [Example I-03] had an efficacy of 90%. In the series on Diabrotica balteata [4], the pest or weed control at 100 g/ha is 100%.
In the case of `CCS(=O)(=O)c1ccc(-n2ncn(-c3ccc(C#N)cc3)c2=O)nc1-c1nc2cc(C(F)(F)C(F)(F)F)nnc2n1C` [Example I-06], the efficacy in the series with Nezara viridula [2] turned out to be 100%. Besides, the “efficacy (kill rate)” value in the series with Myzus persicae [5] stood at 95%. Also, the pest or weed control at 100 g/ha in the series with Spodoptera frugiperda [6] and in the series on Diabrotica balteata [4] was 100% each time.
As for `CCS(=O)(=O)c1ccc(-n2ncn(-c3cccc(F)c3)c2=O)nc1-c1nc2cc(C(F)(F)C(F)(F)F)nnc2n1C` [Example I-12], the “efficacy (kill rate)” value with Myzus persicae [5] is 98%. In addition, the efficacy in the series with Nezara viridula [7] amounted to 100%. The pest or weed control at 20 ppm with Meloidogyne incognita was 100%. Besides, the pest or weed control at 100 g/ha with Spodoptera frugiperda [6] and in the series on Diabrotica balteata [4] was 100% each time.
As for `CCS(=O)(=O)c1ccc(-n2ncn(-c3ccc(Cl)cc3)c2=O)nc1-c1nc2cc(C(F)(F)C(F)(F)F)nnc2n1C` [Example I-22], the efficacy turned out to be 100% in the series on Phaedon cochleariae, 90% in the series with Nezara viridula [7], 100% in the series with Myzus persicae [8] and 100% in the series on Diabrotica balteata [9]. Moreover, the “efficacy (kill rate)” value in the series with Musca domestica, with Lucilia cuprina and in the series with Ctenocephalides felis was 100% in each case. Besides, the pest or weed control at 100 g/ha in the series with Spodoptera frugiperda [6] is 100%.

For the origin of these results see US20240294533A1, “2-(HET)ARYL-SUBSTITUTED CONDENSED HETEROCYCLE DERIVATIVES AS PEST CONTROL AGENTS” (Bayer Aktiengesellschaft, priority 2021, published 2024).
